Assay results: patent US11000033B2, “Ketone or oxime compound, and herbicide” (NISSAN CHEMICAL CORPORATION, priority 2014, dated 2021)

Legend:
Format in all cases: in vivo
[1] = system: Alopecurus myosuroides; assay: Test Example 5: herbicidal effect by foliage application, plastic box (symbol J); details: 320 g/ha, 3 weeks after application
Method in brief: (§1)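 Sowing in sterilized diluvial soil, 14 days' greenhouse growth at 25° C. to 30° C., then uniform small-sprayer foliar application of aqueous emulsion dilution; plants scored three weeks afterwards.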

[2] = system: corn; assay: Test Example 4: effect on crop by soil treatment (symbol c); details: application herbicide amount 320 g/ha
Method in brief: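 The test used sterilized diluvial soil. Seed was set down in spots and overlaid with about 1.5 cm of soil before growth in a greenhouse kept at 25° C. to 30° C.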

[3] = system: beet; assay: Test Example 4: effect on crop by soil treatment (symbol f); details: application herbicide amount 320 g/ha
Method in brief: (§2)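 Greenhouse culture at 25° C. to 30° C. followed sowing of seed in spots on sterilized diluvial soil with a soil cover close to 1.5 cm thick.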

[4] = system: Veronica persica; assay: Test Example 4: herbicidal effect by soil treatment (symbol R); details: application herbicide amount 320 g/ha
Method in brief: (§3)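 Seeds were sown in sterilized diluvial soil, covered with about 1.5 cm of soil, and the soil surface was sprayed with a water-diluted emulsion of the compound at a predetermined rate. Plants grew in a greenhouse at 25° C. to 30° C.; effects were scored visually 3 weeks after application.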

[5] = system: Galium spurium; assay: Test Example 5: herbicidal effect by foliage application, plastic box (symbol Q); details: 320 g/ha, 3 weeks after application
Method in brief: as §1

[6] = system: beet; assay: Test Example 5: effect on crop by foliage application, plastic box (symbol f); details: 320 g/ha, 3 weeks after application
Method in brief: (§4)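 Soil: sterilized diluvial. Container: plastic box, 21 × 13 cm, 7 cm deep. Sowing: spot-like, ~1.5 cm cover. Growth: greenhouse, 25° C. to 30° C.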

[7] = system: Abutilon theophrasti; assay: Test Example 5: herbicidal effect by foliage application, plastic box (symbol M); details: 320 g/ha, 3 weeks after application
Method in brief: as §1

[8] = system: Echinochloa oryzacola Vasing.; assay: Test Example 1: herbicidal activity, application before weed generation in submerged conditions (symbol A); details: application herbicide amount 320 g/ha
Method in brief: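 Flooded alluvial soil (4 cm water) was mixed-sown with the three weed species, and 2.5-leaf rice seedlings were transplanted. On sowing day, a water-diluted emulsion at a predetermined rate was applied to the water surface. After 3 weeks in a 25–30 °C greenhouse, effect was scored 0–5.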

[9] = system: wheat; assay: Test Example 5: effect on crop by foliage application, plastic box (symbol e); details: 320 g/ha, 3 weeks after application
Method in brief: as §4

[10] = system: Stellaria media; assay: Test Example 4: herbicidal effect by soil treatment (symbol P); details: application herbicide amount 320 g/ha
Method in brief: as §3

[11] = system: transplanted rice plant; assay: Test Example 1: effect on crop, application before weed generation in submerged conditions (symbol a); details: application herbicide amount 320 g/ha
Method in brief: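 Alluvial soil pots flooded to 4 cm water, sown with Echinochloa oryzacola, Scirpus juncoides and Monochoria vaginalis, then transplanted with 2.5 leaf stage rice seedlings; pre-emergence application. Greenhouse 25° C. to 30° C.; scored 0–5 by herbicidal ratio 3 weeks after application.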

[12] = system: Echinochloa crus-galli var. crus-galli; assay: Test Example 3: herbicidal effect by foliage application, Wagner pot (symbol H); details: application herbicide amount 320 g/ha
Method in brief: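 Herbicidal activity was rated three weeks after a foliar spray of diluted emulsion concentrate, applied at a predetermined dose to plants grown for 14 days from seed in waterlogged alluvial soil within a 25–30 °C greenhouse.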

[13] = system: soybean; assay: Test Example 4: effect on crop by soil treatment (symbol d); details: application herbicide amount 320 g/ha
Method in brief: as §2

[14] = system: soybean; assay: Test Example 5: effect on crop by foliage application, plastic box (symbol d); details: 320 g/ha, 3 weeks after application
Method in brief: as §4

[15] = system: rice plant; assay: Test Example 5: effect on crop by foliage application, plastic box (symbol b); details: 320 g/ha, 3 weeks after application
Method in brief: as §4

Structure (SMILES)	J: Alopecurus myosuroides, herbicidal effect (criteria of Test Example 1) [1]	c: corn, effect on crop grade [2]	f: beet, effect on crop grade [3]	R: Veronica persica, herbicidal effect grade [4]	Q: Galium spurium, herbicidal effect (criteria of Test Example 1) [5]	f: beet, effect on crop (criteria of Test Example 1) [6]	M: Abutilon theophrasti, herbicidal effect (criteria of Test Example 1) [7]	Herbicidal effect grade, A: Echinochloa oryzacola Vasing. [8]	e: wheat, effect on crop (criteria of Test Example 1) [9]	P: Stellaria media, herbicidal effect grade [10]	Effect grade on crop, a: transplanted rice plant [11]	herbicidal effect on H (Echinochloa crus-galli var. crus-galli), grade 0-5 [12]	d: soybean, effect on crop grade [13]	d: soybean, effect on crop (criteria of Test Example 1) [14]	b: directly sowed rice plant, effect on crop (criteria of Test Example 1) [15]	Effect on crop grade, c: corn [2]	Effect on crop grade, f: beet [3]	Herbicidal effect grade, R: Veronica persica [4]	Herbicidal effect grade, P: Stellaria media [10]	Effect on crop grade, d: soybean [13]
CON=C(C)CC1CC(OC(=O)N2CCOCC2)=C(c2c(C)cc(-c3ccc(Cl)cc3)cc2C)C1=O (mixture of isomers) [6-062]	5 (Herbicidal ratio of 90% or more (almost completely withered))	0 (Herbicidal ratio of 5% or lower (almost no effect))	0 (Herbicidal ratio of 5% or lower (almost no effect))	3 (Herbicidal ratio of 40% or higher and lower than 70%)	5 (Herbicidal ratio of 90% or more (almost completely withered))	0 (Herbicidal ratio of 5% or lower (almost no effect))	3 (Herbicidal ratio of 40% or higher and lower than 70%)	5 (Herbicidal ratio of 90% or more (almost completely withered))	5 (Herbicidal ratio of 90% or more (almost completely withered))	3 (Herbicidal ratio of 40% or higher and lower than 70%)	5 (Herbicidal ratio of 90% or more (almost completely withered))	5 (Herbicidal ratio of 90% or more (almost completely withered))	0 (Herbicidal ratio of 5% or lower (almost no effect))	0 (Herbicidal ratio of 5% or lower (almost no effect))	5 (Herbicidal ratio of 90% or more (almost completely withered))					
CON=C(C)CC1CC(OC(=O)N2CCOCC2)=C(c2c(C)cc(-c3ccc(F)cc3)cc2C)C1=O (mixture of isomers) [6-059]	5 (Herbicidal ratio of 90% or more (almost completely withered))	0 (Herbicidal ratio of 5% or lower (almost no effect))	0 (Herbicidal ratio of 5% or lower (almost no effect))	3 (Herbicidal ratio of 40% or higher and lower than 70%)	4 (Herbicidal ratio of 70% or higher and lower than 90%)	0 (Herbicidal ratio of 5% or lower (almost no effect))	5 (Herbicidal ratio of 90% or more (almost completely withered))	5 (Herbicidal ratio of 90% or more (almost completely withered))	5 (Herbicidal ratio of 90% or more (almost completely withered))	0 (Herbicidal ratio of 5% or lower (almost no effect))	5 (Herbicidal ratio of 90% or more (almost completely withered))	5 (Herbicidal ratio of 90% or more (almost completely withered))	0 (Herbicidal ratio of 5% or lower (almost no effect))	0 (Herbicidal ratio of 5% or lower (almost no effect))	5 (Herbicidal ratio of 90% or more (almost completely withered))					
CON=C(C)CC1CC(O)=C(c2c(C)cc(OC)cc2C)C1=O (stereo not drawn) [6-055]	5 (Herbicidal ratio of 90% or more (almost completely withered))	5 (Herbicidal ratio of 90% or more (almost completely withered))	0 (Herbicidal ratio of 5% or lower (almost no effect))	0 (Herbicidal ratio of 5% or lower (almost no effect))	3 (Herbicidal ratio of 40% or higher and lower than 70%)	0 (Herbicidal ratio of 5% or lower (almost no effect))	1 (Herbicidal ratio of 5% or higher and lower than 20%)	4 (Herbicidal ratio of 70% or higher and lower than 90%)	3 (Herbicidal ratio of 40% or higher and lower than 70%)	0 (Herbicidal ratio of 5% or lower (almost no effect))	5 (Herbicidal ratio of 90% or more (almost completely withered))	5 (Herbicidal ratio of 90% or more (almost completely withered))	0 (Herbicidal ratio of 5% or lower (almost no effect))	3 (Herbicidal ratio of 40% or higher and lower than 70%)	5 (Herbicidal ratio of 90% or more (almost completely withered))					
CON=C(C)CC1CC(OC(=O)SC(C)(C)C)=C(c2c(C)cc(-c3ccc(Cl)cc3)cc2C)C1=O (stereo not drawn) [6-082]	5 (Herbicidal ratio of 90% or more (almost completely withered))	0 (Herbicidal ratio of 5% or lower (almost no effect))	0 (Herbicidal ratio of 5% or lower (almost no effect))	3 (Herbicidal ratio of 40% or higher and lower than 70%)	4 (Herbicidal ratio of 70% or higher and lower than 90%)	0 (Herbicidal ratio of 5% or lower (almost no effect))	4 (Herbicidal ratio of 70% or higher and lower than 90%)	5 (Herbicidal ratio of 90% or more (almost completely withered))	5 (Herbicidal ratio of 90% or more (almost completely withered))	0 (Herbicidal ratio of 5% or lower (almost no effect))	5 (Herbicidal ratio of 90% or more (almost completely withered))	5 (Herbicidal ratio of 90% or more (almost completely withered))	0 (Herbicidal ratio of 5% or lower (almost no effect))	0 (Herbicidal ratio of 5% or lower (almost no effect))	5 (Herbicidal ratio of 90% or more (almost completely withered))					
CON=C(C)CC1CC(OC(=O)N2CCOCC2)=C(c2c(C)cc(-c3ccc(F)c(Cl)c3)cc2C)C1=O (stereo not drawn) [6-093]	5 (Herbicidal ratio of 90% or more (almost completely withered))				5 (Herbicidal ratio of 90% or more (almost completely withered))	3 (Herbicidal ratio of 40% or higher and lower than 70%)	3 (Herbicidal ratio of 40% or higher and lower than 70%)	5 (Herbicidal ratio of 90% or more (almost completely withered))	5 (Herbicidal ratio of 90% or more (almost completely withered))		5 (Herbicidal ratio of 90% or more (almost completely withered))	5 (Herbicidal ratio of 90% or more (almost completely withered))		2 (Herbicidal ratio of 20% or higher and lower than 40%)	4 (Herbicidal ratio of 70% or higher and lower than 90%)	0 (Herbicidal ratio of 5% or lower (almost no effect))	0 (Herbicidal ratio of 5% or lower (almost no effect))	4 (Herbicidal ratio of 70% or higher and lower than 90%)	5 (Herbicidal ratio of 90% or more (almost completely withered))	0 (Herbicidal ratio of 5% or lower (almost no effect))
